According to patent publication US7074789B2, “Kinase inhibitors” (Amgen Inc., priority 1999, dated 2006):

Tests used:
Assay type in all cases: biochemical
Itk = biological target: T1, Itk (Homo sapiens, UniProt Q08881); assay: Kinase inhibition assay (33P transfer), Itk; settings: Table 3, class symbols; read-out: Itk-1
T1 construct: Kinases are expressed as either kinase domains or full length constructs; made in house
T1 sequence (Q08881 1-620): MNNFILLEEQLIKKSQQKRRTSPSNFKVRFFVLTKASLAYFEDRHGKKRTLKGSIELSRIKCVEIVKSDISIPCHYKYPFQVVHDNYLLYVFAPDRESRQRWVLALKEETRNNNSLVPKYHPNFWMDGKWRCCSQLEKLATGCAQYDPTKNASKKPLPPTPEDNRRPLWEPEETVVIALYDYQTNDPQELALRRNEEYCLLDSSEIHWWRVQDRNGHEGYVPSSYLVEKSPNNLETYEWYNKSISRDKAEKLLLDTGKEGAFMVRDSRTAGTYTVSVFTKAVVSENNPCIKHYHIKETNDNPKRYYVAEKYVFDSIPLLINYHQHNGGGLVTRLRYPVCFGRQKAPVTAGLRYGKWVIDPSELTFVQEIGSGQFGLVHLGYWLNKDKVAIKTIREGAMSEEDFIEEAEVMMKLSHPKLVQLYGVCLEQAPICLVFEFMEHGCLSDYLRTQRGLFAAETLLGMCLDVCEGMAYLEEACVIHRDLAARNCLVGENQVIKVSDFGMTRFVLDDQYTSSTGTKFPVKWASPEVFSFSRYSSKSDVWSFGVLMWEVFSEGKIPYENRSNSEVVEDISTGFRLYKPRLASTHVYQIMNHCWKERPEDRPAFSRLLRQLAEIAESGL
How it was run: (§1)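 IC50: inhibitor concentration lowering 33P incorporation into immobilised substrate by 50%. Label transferred from ATP to poly(Glu,Tyr) 4:1 or poly(Arg,Ser) 3:1 is measured after a 0.5% phosphoric acid wash by liquid scintillation.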

Zap-70 = biological target: T2, Zap-70 (Homo sapiens, UniProt P43403); assay: Kinase inhibition assay (33P transfer), Zap-70; settings: Table 3, class symbols; read-out: Zap-1
T2 construct: Kinases are expressed as either kinase domains or full length constructs; made in house
T2 sequence (P43403 1-619): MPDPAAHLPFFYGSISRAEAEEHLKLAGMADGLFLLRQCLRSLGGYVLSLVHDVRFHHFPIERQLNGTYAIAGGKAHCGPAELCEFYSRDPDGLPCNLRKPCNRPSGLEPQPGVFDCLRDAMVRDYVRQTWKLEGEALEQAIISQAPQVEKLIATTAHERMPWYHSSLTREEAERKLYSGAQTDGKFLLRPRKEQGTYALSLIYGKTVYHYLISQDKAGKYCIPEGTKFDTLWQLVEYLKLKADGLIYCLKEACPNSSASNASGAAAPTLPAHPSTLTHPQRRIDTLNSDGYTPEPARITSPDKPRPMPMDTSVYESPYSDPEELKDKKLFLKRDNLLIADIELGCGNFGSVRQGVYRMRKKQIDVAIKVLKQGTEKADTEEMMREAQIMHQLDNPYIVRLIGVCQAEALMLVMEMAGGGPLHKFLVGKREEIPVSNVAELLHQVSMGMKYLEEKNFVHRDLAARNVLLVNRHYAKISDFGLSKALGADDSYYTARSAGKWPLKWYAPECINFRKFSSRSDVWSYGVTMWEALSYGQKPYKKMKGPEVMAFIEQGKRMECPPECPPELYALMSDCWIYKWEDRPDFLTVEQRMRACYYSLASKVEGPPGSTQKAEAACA
How it was run: (§2)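 Liquid scintillation counting of 33P on plate-bound synthetic substrates gives kinase activity. Plates are washed in 0.5% phosphoric acid first; kinases are tagged recombinant proteins from E. coli or baculovirus-infected High Five cells.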

ErbB2 = biological target: T3, ErbB2 (Homo sapiens, UniProt P04626); assay: Kinase inhibition assay (33P transfer), ErbB2; settings: read-out: ErbB2-2
T3 construct: Kinases are expressed as either kinase domains or full length constructs; made in house
How it was run: as §1

Lck = biological target: T4, Lck (Homo sapiens, UniProt P06239); assay: Kinase inhibition assay (33P transfer), Lck; settings: Table 3, class symbols; read-out: Lck-1
T4 construct: Kinases are expressed as either kinase domains or full length constructs; made in house
How it was run: as §2

Kdr = biological target: T5, Kdr (Homo sapiens, UniProt P35968); assay: Kinase inhibition assay (33P transfer), Kdr; settings: Table 3, class symbols; read-out: KDR-1
T5 construct: Kinases are expressed as either kinase domains or full length constructs; made in house
How it was run: as §2

AKT = biological target: T6, AKT (Homo sapiens, UniProt Q9Y243); assay: Kinase inhibition assay (33P transfer), AKT; settings: Table 2, class symbols A-E; read-out: AKT3-1
T6 construct: Kinases are expressed as either kinase domains or full length constructs; made in house
How it was run: as §2

IGFR-1 = biological target: T7, IGFR-1 (Homo sapiens, UniProt P08069); assay: Kinase inhibition assay (33P transfer), IGFR-1; settings: Table 2, class symbols A-E
T7 construct: Kinases are expressed as either kinase domains or full length constructs; made in house

EGFR = biological target: T8, EGFR (Homo sapiens, UniProt P00533); assay: Kinase inhibition assay (33P transfer), EGFR; settings: Table 2, class symbols A-E; read-out: EGFR-1
T8 construct: Kinases are expressed as either kinase domains or full length constructs; made in house
How it was run: as §1

PDGFRB = biological target: T9, PDGFRB (Homo sapiens, UniProt P09619); assay: Kinase inhibition assay (33P transfer), PDGFRB; settings: read-out: PDGFRB-1
T9 construct: Kinases are expressed as either kinase domains or full length constructs; made in house

c-Met = biological target: T10, c-Met (Homo sapiens, UniProt P08581); assay: Kinase inhibition assay (33P transfer), c-Met; settings: Table 2, class symbols A-E; read-out: Met-1
T10 construct: Kinases are expressed as either kinase domains or full length constructs; made in house
How it was run: as §1

T9 sequence (P09619 33-1106, species assumed): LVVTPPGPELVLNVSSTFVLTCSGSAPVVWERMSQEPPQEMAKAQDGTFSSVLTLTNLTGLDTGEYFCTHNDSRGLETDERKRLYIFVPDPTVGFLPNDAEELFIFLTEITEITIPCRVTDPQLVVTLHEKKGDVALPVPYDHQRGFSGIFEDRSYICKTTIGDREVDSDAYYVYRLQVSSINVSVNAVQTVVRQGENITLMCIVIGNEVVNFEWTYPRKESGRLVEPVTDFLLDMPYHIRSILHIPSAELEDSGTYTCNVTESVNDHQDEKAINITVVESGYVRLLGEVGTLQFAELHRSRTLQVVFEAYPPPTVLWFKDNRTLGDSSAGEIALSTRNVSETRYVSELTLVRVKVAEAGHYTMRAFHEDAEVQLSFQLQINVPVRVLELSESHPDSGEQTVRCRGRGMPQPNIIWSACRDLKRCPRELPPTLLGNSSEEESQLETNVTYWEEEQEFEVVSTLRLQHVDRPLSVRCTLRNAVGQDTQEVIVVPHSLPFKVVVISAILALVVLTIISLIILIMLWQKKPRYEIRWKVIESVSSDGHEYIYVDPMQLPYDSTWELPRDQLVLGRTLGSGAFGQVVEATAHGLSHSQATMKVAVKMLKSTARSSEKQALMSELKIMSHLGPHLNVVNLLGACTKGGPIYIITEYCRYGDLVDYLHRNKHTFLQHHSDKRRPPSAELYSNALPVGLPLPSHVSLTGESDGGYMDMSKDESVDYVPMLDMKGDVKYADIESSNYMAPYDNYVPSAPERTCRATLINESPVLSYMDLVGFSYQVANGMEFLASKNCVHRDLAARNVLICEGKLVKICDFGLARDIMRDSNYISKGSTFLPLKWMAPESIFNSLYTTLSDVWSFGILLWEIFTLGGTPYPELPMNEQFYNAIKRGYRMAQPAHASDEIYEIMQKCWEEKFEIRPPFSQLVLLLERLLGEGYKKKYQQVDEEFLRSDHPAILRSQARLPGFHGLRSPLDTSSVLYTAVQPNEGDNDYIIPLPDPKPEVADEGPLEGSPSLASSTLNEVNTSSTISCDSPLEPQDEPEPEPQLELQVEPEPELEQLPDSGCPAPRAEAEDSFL
T10 sequence (P08581 25-1390): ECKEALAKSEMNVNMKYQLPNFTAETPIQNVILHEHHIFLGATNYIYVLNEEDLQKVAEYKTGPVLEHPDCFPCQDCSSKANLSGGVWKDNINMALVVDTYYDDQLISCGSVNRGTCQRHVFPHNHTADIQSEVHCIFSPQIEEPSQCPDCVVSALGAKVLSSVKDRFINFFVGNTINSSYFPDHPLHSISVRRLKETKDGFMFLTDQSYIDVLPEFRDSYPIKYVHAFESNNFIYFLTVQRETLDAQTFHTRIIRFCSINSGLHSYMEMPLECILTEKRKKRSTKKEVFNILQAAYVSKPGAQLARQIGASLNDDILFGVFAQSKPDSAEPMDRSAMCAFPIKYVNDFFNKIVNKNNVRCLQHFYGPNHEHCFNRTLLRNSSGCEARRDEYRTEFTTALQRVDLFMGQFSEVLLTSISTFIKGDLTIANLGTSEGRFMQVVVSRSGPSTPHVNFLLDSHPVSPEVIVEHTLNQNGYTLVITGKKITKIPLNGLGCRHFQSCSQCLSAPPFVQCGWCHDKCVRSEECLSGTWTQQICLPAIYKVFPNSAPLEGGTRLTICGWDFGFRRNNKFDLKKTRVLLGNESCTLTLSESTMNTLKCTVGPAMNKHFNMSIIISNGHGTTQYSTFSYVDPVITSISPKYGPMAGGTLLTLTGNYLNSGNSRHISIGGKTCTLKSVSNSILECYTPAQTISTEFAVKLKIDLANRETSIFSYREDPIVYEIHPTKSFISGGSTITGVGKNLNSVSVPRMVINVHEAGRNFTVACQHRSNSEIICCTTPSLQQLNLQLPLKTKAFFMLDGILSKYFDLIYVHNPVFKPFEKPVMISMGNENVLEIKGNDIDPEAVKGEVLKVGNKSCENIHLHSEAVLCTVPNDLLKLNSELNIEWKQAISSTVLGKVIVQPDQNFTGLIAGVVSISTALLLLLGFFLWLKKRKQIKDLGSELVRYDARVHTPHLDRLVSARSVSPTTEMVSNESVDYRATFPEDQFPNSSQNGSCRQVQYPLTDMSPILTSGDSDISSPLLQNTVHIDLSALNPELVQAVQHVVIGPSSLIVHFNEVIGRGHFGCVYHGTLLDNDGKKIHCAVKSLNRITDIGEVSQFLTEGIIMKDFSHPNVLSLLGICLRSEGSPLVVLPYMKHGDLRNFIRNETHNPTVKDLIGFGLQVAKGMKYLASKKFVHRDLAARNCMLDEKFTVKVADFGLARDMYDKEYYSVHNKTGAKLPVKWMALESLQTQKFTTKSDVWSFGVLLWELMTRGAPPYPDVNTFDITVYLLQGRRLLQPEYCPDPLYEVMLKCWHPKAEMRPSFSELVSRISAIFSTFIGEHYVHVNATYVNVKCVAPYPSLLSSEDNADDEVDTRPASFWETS
T8 sequence (P00533 25-1210, species assumed): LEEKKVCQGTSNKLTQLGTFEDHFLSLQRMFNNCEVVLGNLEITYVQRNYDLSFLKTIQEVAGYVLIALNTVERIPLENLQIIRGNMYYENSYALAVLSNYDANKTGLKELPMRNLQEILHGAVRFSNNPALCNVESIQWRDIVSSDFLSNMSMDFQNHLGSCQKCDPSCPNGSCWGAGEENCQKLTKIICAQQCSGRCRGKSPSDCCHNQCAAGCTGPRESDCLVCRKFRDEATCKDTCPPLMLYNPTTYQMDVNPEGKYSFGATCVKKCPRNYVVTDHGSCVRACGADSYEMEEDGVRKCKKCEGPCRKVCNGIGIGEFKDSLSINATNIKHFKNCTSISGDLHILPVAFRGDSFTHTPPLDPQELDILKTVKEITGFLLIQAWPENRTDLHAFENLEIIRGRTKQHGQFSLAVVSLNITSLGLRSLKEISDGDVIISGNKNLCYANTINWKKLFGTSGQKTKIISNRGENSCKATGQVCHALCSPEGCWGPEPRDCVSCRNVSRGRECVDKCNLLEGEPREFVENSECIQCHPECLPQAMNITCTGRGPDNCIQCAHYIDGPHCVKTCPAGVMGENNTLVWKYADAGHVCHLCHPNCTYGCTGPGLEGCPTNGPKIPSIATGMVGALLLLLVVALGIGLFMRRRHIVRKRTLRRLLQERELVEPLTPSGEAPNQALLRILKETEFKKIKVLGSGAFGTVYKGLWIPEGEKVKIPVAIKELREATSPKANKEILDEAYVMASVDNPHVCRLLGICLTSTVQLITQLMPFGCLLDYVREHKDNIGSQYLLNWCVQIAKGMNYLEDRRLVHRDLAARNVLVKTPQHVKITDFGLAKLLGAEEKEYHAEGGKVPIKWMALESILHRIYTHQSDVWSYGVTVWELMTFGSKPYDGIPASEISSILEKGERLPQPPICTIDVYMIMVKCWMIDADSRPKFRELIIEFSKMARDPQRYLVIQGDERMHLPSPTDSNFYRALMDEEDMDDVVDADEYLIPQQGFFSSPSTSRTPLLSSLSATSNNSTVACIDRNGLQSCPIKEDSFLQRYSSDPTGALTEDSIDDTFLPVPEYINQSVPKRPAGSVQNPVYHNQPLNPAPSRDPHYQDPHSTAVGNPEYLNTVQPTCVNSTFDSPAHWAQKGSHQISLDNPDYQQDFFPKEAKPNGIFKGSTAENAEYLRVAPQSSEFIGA
T6 sequence (Q9Y243 whole entry, the tested form may be a part): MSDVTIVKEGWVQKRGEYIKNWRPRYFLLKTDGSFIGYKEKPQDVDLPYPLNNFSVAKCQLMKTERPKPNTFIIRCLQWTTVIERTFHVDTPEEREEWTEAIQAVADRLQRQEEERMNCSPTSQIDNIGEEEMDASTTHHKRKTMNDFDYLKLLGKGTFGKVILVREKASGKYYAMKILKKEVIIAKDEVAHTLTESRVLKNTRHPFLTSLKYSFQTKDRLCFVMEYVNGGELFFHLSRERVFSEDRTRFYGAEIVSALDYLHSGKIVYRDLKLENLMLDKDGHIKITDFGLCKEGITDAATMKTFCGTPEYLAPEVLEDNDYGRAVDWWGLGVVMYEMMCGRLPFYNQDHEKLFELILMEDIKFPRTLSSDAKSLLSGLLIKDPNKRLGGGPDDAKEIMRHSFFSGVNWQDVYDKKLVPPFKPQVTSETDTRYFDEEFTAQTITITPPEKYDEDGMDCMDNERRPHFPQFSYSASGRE
T4 sequence (P06239 whole entry, species assumed, the tested form may be a part): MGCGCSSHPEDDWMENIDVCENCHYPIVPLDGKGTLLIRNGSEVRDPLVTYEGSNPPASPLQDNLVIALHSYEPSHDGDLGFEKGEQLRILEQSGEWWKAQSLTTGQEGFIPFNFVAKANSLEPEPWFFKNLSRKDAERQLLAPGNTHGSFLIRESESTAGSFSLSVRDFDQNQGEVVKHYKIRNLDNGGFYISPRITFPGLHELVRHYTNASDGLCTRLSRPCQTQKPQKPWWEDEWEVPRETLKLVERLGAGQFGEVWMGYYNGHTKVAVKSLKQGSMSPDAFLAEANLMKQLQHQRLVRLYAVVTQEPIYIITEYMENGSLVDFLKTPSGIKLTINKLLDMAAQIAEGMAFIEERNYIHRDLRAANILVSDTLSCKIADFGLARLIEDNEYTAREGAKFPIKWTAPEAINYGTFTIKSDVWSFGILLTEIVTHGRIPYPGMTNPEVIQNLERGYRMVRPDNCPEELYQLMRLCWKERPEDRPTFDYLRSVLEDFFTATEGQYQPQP

Row | Compound | IC50 (Itk) [µM] | IC50 (Zap-70) [µM] | IC50 (ErbB2) [µM] | IC50 (Lck) [µM] | IC50 (Kdr) [µM] | IC50 (AKT) [µM] | IC50 (IGFR-1) [µM] | IC50 (EGFR) [µM] | IC50 (PDGFRB) [µM] | IC50 (c-Met) [µM]
1 | COc1cc(C)c(Nc2ncnc(Nc3cc(-c4ccc(Cl)cc4)n[nH]3)n2)cc1OC [Compound 1128] | 0.913 to 5.48 | > 10.3 | 0.913 to 5.48 | 0.913 to 5.48 | 0.913 to 5.48 | > 10.3 | < 0.913 | 7.99 to 10.3 | > 10.3 | 0.913 to 5.48
2 | COC(=O)c1ccc(-c2cc(Nc3ncnc(NCCN4CCNC4=O)n3)[nH]n2)cc1 [Compound 820] | 8.27 to 10.6 | > 10.6 | > 10.6 | > 10.6 | > 10.6 | > 10.6 | 8.27 to 10.6 | > 10.6 | > 10.6 | > 10.6
3 | COc1cc(Nc2ncnc(NC(=O)Cc3ccccc3)n2)cc(OC)c1OC [Compound 679] | > 11.4 | > 11.4 | 6.07 to 8.85 | 1.01 to 6.07 | 8.85 to 11.4 | > 11.4 | > 11.4 | 1.01 to 6.07 | 8.85 to 11.4 | > 11.4
4 | COc1cc(C)c(Nc2ncnc(Nc3cc(-c4ccc(C)cc4)n[nH]3)n2)cc1OC [Compound 1127] | > 10.8 | > 10.8 | > 10.8 | > 10.8 | > 10.8 | > 10.8 | < 0.958 | > 10.8 | > 10.8 | < 0.958
5 | O=C(O)Cc1cccc(Nc2ncnc(-c3cccnc3Nc3ccccc3)n2)c1 [Compound 1094] | > 11.3 | 6.02 to 8.78 | 6.02 to 8.78 | > 11.3 | < 1 | > 11.3 | > 11.3 | 1 to 6.02 | < 1 | 1 to 6.02
6 | COc1cc(Nc2ncnc(-n3ccnc3Cl)n2)cc(OC)c1OC [Compound 1071] | 1.1 to 6.62 | > 12.4 | > 12.4 | 9.65 to 12.4 | 9.65 to 12.4 | > 12.4 | 1.1 to 6.62 | 1.1 to 6.62 | 1.1 to 6.62 | > 12.4
7 | COc1cc(Nc2ncnc(-c3cccnc3NC3CCN(Cc4ccccc4)CC3)n2)cc(OC)c1OC [Compound 847] | > 8.53 | > 8.53 | > 8.53 | > 8.53 | > 8.53 | > 8.53 | > 8.53 | > 8.53 | > 8.53 | > 8.53
8 | c1coc(-c2cc(Nc3ncnc(Nc4nc[nH]n4)n3)n[nH]2)c1 [Compound 889] | 1.29 to 7.73 | > 14.5 | 1.29 to 7.73 | > 14.5 | 1.29 to 7.73 | > 14.5 | 1.29 to 7.73 | 1.29 to 7.73 | 1.29 to 7.73 | 1.29 to 7.73
9 | COc1ccc(Nc2ncnc(N(C)c3cccc(C)c3)n2)cc1OC [Compound 800] | > 12.8 | > 12.8 | 1.14 to 6.83 | 1.14 to 6.83 | 1.14 to 6.83 | > 12.8 | 9.96 to 12.8 | < 1.14 | > 12.8 | 1.14 to 6.83
10 | O=C(O)Cc1cccc(Nc2ncnc(Nc3ccc(Cl)cc3F)n2)c1 [Compound 968] | > 12 | > 12 | 6.42 to 9.36 | > 12 | < 1.07 | > 12 | 9.36 to 12 | 1.07 to 6.42 | < 1.07 | 9.36 to 12
11 | Clc1cc(Nc2ncnc(Nc3ccc4c(cnn4Cc4ccccc4)c3)n2)cc(Cl)c1Cl [Compound 872] | 0.805 to 4.83 | > 9.06 | 0.805 to 4.83 | > 9.06 | 0.805 to 4.83 | 0.805 to 4.83 | 0.805 to 4.83 | 0.805 to 4.83 | 0.805 to 4.83 | 0.805 to 4.83
12 | COc1ccc(Nc2ncnc(N(C)c3ccc4c(cnn4Cc4ccccc4)c3)n2)cc1OC [Compound 669] | > 9.62 | > 9.62 | < 0.856 | 0.856 to 5.13 | 0.856 to 5.13 | > 9.62 | > 9.62 | < 0.856 | 0.856 to 5.13 | 7.49 to 9.62
13 | CN(c1cccc(Br)c1)c1ncnc(Nc2cccc(Cc3nnn[nH]3)c2)n1 [Compound 670] | > 10.3 | > 10.3 | < 0.913 | 0.913 to 5.48 | 0.913 to 5.48 | > 10.3 | > 10.3 | < 0.913 | 0.913 to 5.48 | < 0.913
14 | COc1ccc(Nc2ncnc(N(C)[C@H](C)c3ccccc3)n2)cc1OC [Compound 803] | > 12.3 | > 12.3 | 6.57 to 9.58 | 1.09 to 6.57 | > 12.3 | > 12.3 | > 12.3 | 1.09 to 6.57 | > 12.3 | > 12.3
15 | COC(=O)c1ccc(-c2cc(Nc3ncnc(NCCCO)n3)[nH]n2)cc1 [Compound 818] | > 12.2 | > 12.2 | > 12.2 | > 12.2 | > 12.2 | > 12.2 | > 12.2 | > 12.2 | 1.08 to 6.5 | > 12.2
16 | COc1cccc(Nc2ncccc2-c2ncnc(Nc3cc(OC)c(OC)c(OC)c3)n2)c1 [Compound 829] | > 9.77 | > 9.77 | 0.869 to 5.21 | > 9.77 | < 0.869 | > 9.77 | > 9.77 | 7.6 to 9.77 | 0.869 to 5.21 | > 9.77
17 | C=CCN(c1cccc(Cl)c1)c1ncnc(Nc2cc(OC)cc(OC)c2)n1 [Compound 722] | < 1.01 | > 11.3 | 1.01 to 6.03 | 1.01 to 6.03 | < 1.01 | > 11.3 | 8.8 to 11.3 | < 1.01 | 1.01 to 6.03 | 1.01 to 6.03
18 | COC(=O)c1ccc(-c2cc(Nc3ncnc(Nc4cc(=O)n(-c5ccccc5)[nH]4)n3)[nH]n2)cc1 [Compound 880] | > 9.59 | > 9.59 | 5.11 to 7.46 | > 9.59 | 5.11 to 7.46 | > 9.59 | > 9.59 | 0.852 to 5.11 | 0.852 to 5.11 | 0.852 to 5.11
19 | COc1cc(Nc2ncnc(-c3cccnc3Nc3cccc(C#N)c3)n2)cc(OC)c1OC [Compound 828] | > 9.88 | > 9.88 | > 9.88 | > 9.88 | > 9.88 | > 9.88 | > 9.88 | > 9.88 | > 9.88 | > 9.88
20 | c1ccc(CNc2nc3ccccc3n2-c2ncnc(Nc3cccc(Cn4ccnn4)c3)n2)cc1 [Compound 965] | 5.06 to 7.38 | > 9.48 | 0.843 to 5.06 | 0.843 to 5.06 | < 0.843 | > 9.48 | > 9.48 | < 0.843 | < 0.843 | > 9.48
